Patent US20070276011A1, “Plasminogen Activator Inhibitor-1 Inhibitor” (priority 2003, published 2007)

What was measured:
recombinant human PAI-1 [1] = target: T1, recombinant human PAI-1 (Homo sapiens, UniProt P05121); experiment: PAI-1 inhibitory activity, Test Method B (tPA fluorogenic substrate, Tris buffer pH7.5, room temperature); format: biochemical; details: 25 μM test compound; Test Method B (cells marked "method B")
Description: To a 90 μL solution obtained by diluting a DMSO solution of the test compound at 2.2-fold concentration of the test concentration (=final concentration when fluorogenic substrate was added) with a Tris buffer (pH7.5), 10 μL of 120 nM recombinant human PAI-1 solution adjusted with pH6.6 phosphate buffer was added, and incubated for 15 minutes at room temperature. 50 μL of 800IU/ml two-chain tPA (activity standard) solution adjusted with Tris buffer (pH7.5) was added, and incubated for 30 minutes at room temperature. […] Fluorescence was measured at the excitation wavelength=360 nm, emission wavelength=460 or 465 nm using a microplete reader (SPECTRAFLUOR or GENios) by TECAN. The fluorescence intensities in the presence of the PAI-1 as the control (DMSO) or in the absence of the PAI-1 (tPA alone) were taken as 100% and 0% of PAI-1 activities, respectively, and inhibitory ratios of PAI-1 activities in the presence of the test compound were obtained. […]
In either method of Test Method A or B, fluorescence of tPA activation by the test compound in the absence of PAI-1 or that of the test compound was not observed.
In the following table, “method B” described in the column of the inhibitory ratio means that the results were measured by the above Test Method B. The other results indicated were measured by the above Test Method A.

rat thrombosis model = experiment: Tests in rat thrombosis model (carotid shunt, thrombus weight); format: in vivo; details: intraperitoneally 30 mg/kg/day for 8 days beforehand, control 94.9±3.3 mg, n=4, p<0.01
Description: Catheters for shunt were inserted into the right carotid artery and the left carotid artery of a rat, blood was circulated for 30 minutes, and weights of thromboses adhered to threads placed inside the catheters were measured.

recombinant human PAI-1 [2] = target: T1, recombinant human PAI-1; experiment: PAI-1 inhibitory activity, Test Method A (tPA fluorogenic substrate, Tris buffer pH8.0, 37 C); format: biochemical; details: for IC50: 50% inhibitory concentration of PAI-1 activity, according to the aforementioned method; for Inhibitory Ratio at 25 μM (%): Test Method A
[3] = test system: mouse heart transplantation model; experiment: Tests in mouse (murine) heart transplantation model; format: in vivo; details: p<0.05
recombinant human PAI-1 [4] = target: T1, recombinant human PAI-1; experiment: Inhibition of complex formation of PAI-1 and tPA (SDS-PAGE); format: biochemical; details: 100 μM concentration
Description: To a 2.5 μL solution obtained by diluting a DMSO solution of the test compound at 4-fold concentration of the test concentration with PBS(-), 5 μL of 150 nM recombinant human PAI-1 solution adjusted with a phosphate buffer (pH6.6, 0.05M Sodium Phosphate, 0.1 M NaCl, 1 mM EDTA) was added, and reacted for 5 minutes at 37° C. […] of 600 nM recombinant human one-chain tPA solution adjusted with PBS(-) was added, and further reacted for 5 minutes at 37° C. 10 μL of stop buffer (1.25 mM Tris-HCl pH6.8, 4% SDS, 0.01% BPB, 14% Glycerol) was added, heated for 30 seconds at 100° C., and then the total amount of 20 μL was applied to 10% SDS-PAGE gel electrophoresis. When the test compound was not added as being a control, a band of PAI-1-tPA complex was observed.

T1 sequence (P05121 24-402): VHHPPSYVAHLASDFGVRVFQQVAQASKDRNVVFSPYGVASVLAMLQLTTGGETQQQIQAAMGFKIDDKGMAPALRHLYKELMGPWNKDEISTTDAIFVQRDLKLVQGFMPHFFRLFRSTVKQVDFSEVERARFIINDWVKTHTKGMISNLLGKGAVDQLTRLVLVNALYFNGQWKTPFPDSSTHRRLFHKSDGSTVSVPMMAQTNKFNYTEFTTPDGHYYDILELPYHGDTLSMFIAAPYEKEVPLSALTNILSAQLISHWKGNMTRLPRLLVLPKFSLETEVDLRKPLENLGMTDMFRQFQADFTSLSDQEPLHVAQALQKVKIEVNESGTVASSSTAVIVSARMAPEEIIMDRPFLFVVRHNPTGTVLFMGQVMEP

Compound	IC50 (recombinant human PAI-1 [2]) [nM]	inhibition of the complex formation of PAI-1 and tPA observed with SDS-PAGE (recombinant human PAI-1 [4])	Inhibitory Ratio at 25 μM (%) (recombinant human PAI-1 [2]; 25 μM test compound)	other results
COC(=O)c1ccc(CN2C(=O)SC(=Cc3ccc(O)c(C(=O)O)c3)C2=O)cc1 [compound 409, 5-(3-Carboxy-4-hydroxybenzylidene)-3-(4-methoxycarbonylbenzyl)-thiazolidine-2,4-dione]				Inhibitory Ratio at 25 μM (%) (recombinant human PAI-1 [1]): 23 (method B) %
O=C(O)c1cccc(C=C2SC(=O)N(Cc3ccc(Cl)c(Cl)c3)C2=O)c1 [compound 350, 5-(3-Carboxybenzylidene)-3-(3,4-dichlorobenzyl)thiazolidine-2,4-dione]				Inhibitory Ratio at 25 μM (%) (recombinant human PAI-1 [1]): 75 (method B) %
O=C1SC(=Cc2cc(O)c(O)c(O)c2)C(=O)N1Cc1ccc(Cl)c(Cl)c1 [compound 10, 5-(3,4,5-Trihydroxybenzylidene)-3-(3,4-dichlorobenzyl)thiazolidine-2,4-dione]	450	completely inhibited		weight of thrombus (rat thrombosis model): 67.2 ± 6.3 mg; Inhibitory Ratio at 25 μM (%) (recombinant human PAI-1 [2]; test compound 25 μM): >99%; ratio of fibrous lesion 60 days after the transplantation ([3]; class II mismatch allograft, control 44.5±2.7%, n=5): 18.8±2.2%; Vascular endothelial hyperplasia (ratio of thickened endothelium to the internal elastic lamina); incidence of vascular intimal thickening ([3]; class II mismatch allograft, control 64.5±5.8%): 21.7±4.9%; graft survival ([3]; major mismatch allograft Balb/c to C57BL/6, intraperitoneally 20 mg/kg/day, control 7.2±0.2 days): 9.0 ± 0.7 days
O=C1SC(=Cc2ccc(O)c(O)c2)C(=O)N1Cc1ccc(Cl)cc1Cl [compound 23, 5-(3,4-dihydroxybenzylidene)-3-(2,4-dichlorobenzyl)thiazolidine-2,4-dione]	250	completely inhibited		melting point: 202 °C (dec.); Inhibitory Ratio at 25 μM (%) (recombinant human PAI-1 [2]; test compound 25 μM): >99%
O=C(Nc1cc(O)c(O)c(O)c1)c1cc(C=C2SC(=O)N(Cc3ccc(Cl)c(Cl)c3)C2=O)ccc1O [compound 435]		completely inhibited	71	
O=C(Nc1ccc(CN2C(=O)SC(=Cc3cccc(O)c3O)C2=O)cc1)c1ccc(Oc2ccccc2)cc1 [compound 316, 5-(2,3-Dihydroxybenzylidene)-3-[4-(4-phenoxybenzoylamino)benzyl]-thiazolidine-2,4-dione]	460	completely inhibited	>99	
CCOC1=NN(c2ccc([N+](=O)[O-])cc2)C(=O)C1=Cc1cc(/C=C/c2ccccc2)ccc1O [compound 517]	480	completely inhibited	>99	
O=C(Nc1cc(C(F)(F)F)ccc1Cl)c1cc(C=C2SC(=O)N(Cc3ccc(Cl)c(Cl)c3)C2=O)ccc1O [compound 423]		completely inhibited	75	
O=C1SC(=Cc2cccc(O)c2O)C(=O)N1Cc1ccc(C=Cc2ccccc2)cc1 [compound 56, 5-(2,3-Dihydroxybenzylidene)-3-(4-styrylbenzyl)thiazolidine-2,4-dione]	140	completely inhibited		Inhibitory Ratio at 25 μM (%) (recombinant human PAI-1 [2]; test compound 25 μM): >99%
O=C(Nc1cc(Cl)ccc1Cl)c1cc(C=C2SC(=O)N(Cc3ccc(Cl)c(Cl)c3)C2=O)ccc1O [compound 441]	480	completely inhibited	71	
O=C(Nc1ccc(O)c(O)c1)c1cc(C=C2SC(=O)N(Cc3cc(C(F)(F)F)cc(C(F)(F)F)c3)C2=O)ccc1O [compound 384]		completely inhibited	91	
